Measured values as given in patent US20060122153A1, “Antineoplastic ether lipid compounds with modifications at the sn-2 carbon” (priority 2003, published 2006).

Key:
[1] = tested on: IGROV1; assay: NCI growth inhibition screen, ovarian panel; assay type: cell-based, human; design: key: = means equivalent activity; + means that it appears to be significantly better (i.e., by ˜2x); < means it appears to be less active than ET18OCH3 (˜2x); a combination like =/+ or </+ means that activity is dependent upon the isomer; a combination like =/+ or </+ means that activity is dependent upon the isomer; settings: from GI50s
Experimental: (§1) Candidates deemed suitable for in vivo testing were then synthesized in large scale quantities and some of this material was sent to the NCI's Developmental Therapeutics Program for a battery of growth inhibitory studies against various human tumor cell lines (60 cell lines, 9 different panels). The remainder of the material was used to assess in vivo efficacy using murine tumor models. Additionally, studies were conducted on the lead candidates to discern mechanism of action with particular emphasis on these agents apoptotic ability as measured by caspase 3 activity. The details (materials and methods) for these various assays are described further in the following discussion.
(§2) Ten compounds were also sent to NCI's Drug Discovery Program for screening against numerous human tumor cell lines (9 panels total: renal ovarian, colon, CNS, non-small cell lung, leukemia, breast, melanoma, and prostate). The data are shown in FIGS. 2a-i which also include data regarding D- and L-ET-18-OCH3 (listed as L-EL and D-EL in the figures). Upon examining the data, one is struck by how 1R and 1a′S standout in comparison to the other compounds, especially for the renal, ovarian, colon, and CNS panels.

[2] = tested on: OVCAR-8; assay: NCI growth inhibition screen, ovarian panel; assay type: cell-based, human; design: key: = means equivalent activity; + means that it appears to be significantly better (i.e., by ˜2x); < means it appears to be less active than ET18OCH3 (˜2x); a combination like =/+ or </+ means that activity is dependent upon the isomer; a combination like =/+ or </+ means that activity is dependent upon the isomer; settings: OVCAR-8, Ovarian; from GI50s
Experimental: as §1, §2

[3] = tested on: SK-OV-3; assay: NCI growth inhibition screen, ovarian panel; assay type: cell-based, human; design: key: = means equivalent activity; + means that it appears to be significantly better (i.e., by ˜2x); < means it appears to be less active than ET18OCH3 (˜2x); a combination like =/+ or </+ means that activity is dependent upon the isomer; a combination like =/+ or </+ means that activity is dependent upon the isomer; settings: SK-OV-3, Ovarian; from GI50s
Experimental: as §1, §2

[4] = tested on: OVCAR-3; assay: NCI growth inhibition screen, ovarian panel; assay type: cell-based, human; design: key: = means equivalent activity; + means that it appears to be significantly better (i.e., by ˜2x); < means it appears to be less active than ET18OCH3 (˜2x); a combination like =/+ or </+ means that activity is dependent upon the isomer; a combination like =/+ or </+ means that activity is dependent upon the isomer; settings: OVCAR-3, Ovarian; from GI50s
Experimental: as §1, §2

[5] = tested on: KM12; assay: NCI growth inhibition screen, colon panel; assay type: cell-based, human; design: key: = means equivalent activity; + means that it appears to be significantly better (i.e., by ˜2x); < means it appears to be less active than ET18OCH3 (˜2x); a combination like =/+ or </+ means that activity is dependent upon the isomer; a combination like =/+ or </+ means that activity is dependent upon the isomer; settings: from GI50s
Experimental: as §1, §2

[6] = tested on: HCT-116; assay: NCI growth inhibition screen, colon panel; assay type: cell-based, human; design: key: = means equivalent activity; + means that it appears to be significantly better (i.e., by ˜2x); < means it appears to be less active than ET18OCH3 (˜2x); a combination like =/+ or </+ means that activity is dependent upon the isomer; a combination like =/+ or </+ means that activity is dependent upon the isomer; settings: HCT-116, Colon; from GI50s
Experimental: as §1, §2

[7] = tested on: HCT-15; assay: NCI growth inhibition screen, colon panel; assay type: cell-based, human; design: key: = means equivalent activity; + means that it appears to be significantly better (i.e., by ˜2x); < means it appears to be less active than ET18OCH3 (˜2x); a combination like =/+ or </+ means that activity is dependent upon the isomer; a combination like =/+ or </+ means that activity is dependent upon the isomer; settings: HCT-15, Colon; from GI50s
Experimental: as §1, §2

[8] = tested on: COLO 205; assay: NCI growth inhibition screen, colon panel; assay type: cell-based, human; design: key: = means equivalent activity; + means that it appears to be significantly better (i.e., by ˜2x); < means it appears to be less active than ET18OCH3 (˜2x); a combination like =/+ or </+ means that activity is dependent upon the isomer; a combination like =/+ or </+ means that activity is dependent upon the isomer; settings: COLO 205, Colon; from GI50s
Experimental: as §1, §2

[9] = tested on: HCC-2998; assay: NCI growth inhibition screen, colon panel; assay type: cell-based, human; design: key: = means equivalent activity; + means that it appears to be significantly better (i.e., by ˜2x); < means it appears to be less active than ET18OCH3 (˜2x); a combination like =/+ or </+ means that activity is dependent upon the isomer; a combination like =/+ or </+ means that activity is dependent upon the isomer; settings: HCC-2998, Colon; from GI50s
Experimental: as §1, §2

[10] = tested on: HT29; assay: NCI growth inhibition screen, colon panel; assay type: cell-based, human; design: key: = means equivalent activity; + means that it appears to be significantly better (i.e., by ˜2x); < means it appears to be less active than ET18OCH3 (˜2x); a combination like =/+ or </+ means that activity is dependent upon the isomer; a combination like =/+ or </+ means that activity is dependent upon the isomer; settings: from GI50s
Experimental: as §1, §2

[11] = tested on: SW-620; assay: NCI growth inhibition screen, colon panel; assay type: cell-based, human; design: key: = means equivalent activity; + means that it appears to be significantly better (i.e., by ˜2x); < means it appears to be less active than ET18OCH3 (˜2x); a combination like =/+ or </+ means that activity is dependent upon the isomer; a combination like =/+ or </+ means that activity is dependent upon the isomer; settings: SW-620, Colon; from GI50s
Experimental: as §1, §2

[12] = tested on: MOLT-4; assay: NCI growth inhibition screen, leukemia panel; assay type: cell-based, human; design: key: = means equivalent activity; + means that it appears to be significantly better (i.e., by ˜2x); < means it appears to be less active than ET18OCH3 (˜2x); a combination like =/+ or </+ means that activity is dependent upon the isomer; a combination like =/+ or </+ means that activity is dependent upon the isomer; settings: MOLT-4, Leukemia; from GI50s
Experimental: as §1, §2

[13] = tested on: platelets in dog whole blood
Experimental: Briefly, whole citrated blood is diluted 1:2 with sterile saline and placed in a warm chamber with a mini stir bar. An electronic probe, measuring electrical resistance, is inserted in the sample. The aggregometer is calibrated and the baseline is observed to detect any spontaneous aggregation. The test sample is added and allowed to run for at least 6 minutes. If the sample is an agonist the platelets will start to aggregate and stick to the electronic probe causing resistance across the electrodes to increase. This resistance, in ohms, is measured 6 minutes post addition of sample. The test samples are run at 25, 100, 200, 400 and 800 uM and compared to 100 uM L-ET-18-OCH3.
Collection of Blood Sample for in vitro Platelet Aggregation Testing: Venous blood is collected in 4.5 mL Vacutainer tubes containing 0.129 M sodium citrate using a 21G needle or larger. Blood is immediately mixed by gentle inversion 15-20 times and kept at room temperature. Dilution ratio is 1 to 9 (3.8% citrate solution:blood). One (2.0 mL) Vacutainer tube containing EDTA is also collected for platelet counts. Complete blood counts (CBC) are measured on the CDC Technologies Hemavet 1500 to ensure that the test subject's platelets are within normal range. Amy vials of hemolytic blood or blood containing any clots should be discarded. Platelet aggregation testing must be completed within 3 hours of blood collection. After this time the ability of platelets to aggregate decreases.
Dilutions were prepared in PBS or saline at 40× concentration. (25 uL test sample are added to 1000 uL diluted blood (1:40)).

SMILES: CCCCCCCCCCCCCCCCCCOC[C@@H](COP(=O)([O-])OCC[N+](C)(C)C)OS(C)(=O)=O [1a′S]
- Performance as compared to ET-18-O—CH3 [1]: 0
- Performance as compared to ET-18-O—CH3 [2]: 0
- Performance as compared to ET-18-O—CH3 [3]: 0
- Performance as compared to ET-18-O—CH3 [4]: 0
- Performance as compared to ET-18-O—CH3 [5]: 0
- Performance as compared to ET-18-O—CH3 [6]: 256
- Performance as compared to ET-18-O—CH3 [7]: 512
- Performance as compared to ET-18-O—CH3 [8]: 0
- Performance as compared to ET-18-O—CH3 [9]: 128
- Performance as compared to ET-18-O—CH3 [10]: 0
- Performance as compared to ET-18-O—CH3 [11]: 1024
- Performance as compared to ET-18-O—CH3 [12]: 0

SMILES: CCCCCCCCCCCCCCCCCCOCC(COP(=O)([O-])OCC[N+](C)(C)C)OS(C)(=O)=O (centres unmarked) [Compound 1aR]
- Performance as compared to ET-18-O—CH3 [1]: =
- Performance as compared to ET-18-O—CH3 [2]: =
- Performance as compared to ET-18-O—CH3 [3]: =
- Performance as compared to ET-18-O—CH3 [4]: =
- Performance as compared to ET-18-O—CH3 [5]: =
- Performance as compared to ET-18-O—CH3 [6]: +
- Performance as compared to ET-18-O—CH3 [7]: =
- Performance as compared to ET-18-O—CH3 [8]: =
- Performance as compared to ET-18-O—CH3 [9]: +
- Performance as compared to ET-18-O—CH3 [10]: =
- Performance as compared to ET-18-O—CH3 [11]: +
- Performance as compared to ET-18-O—CH3 [12]: =

SMILES: CCCCCCCCCCCCCCCCCCOCC(COP(=O)([O-])OCC[N+](C)(C)C)OC [D-ET18OCH3, 1-O-octadecyl-2-O-methyl-glycerophosphocholine, reference compound]
- Platelet aggregation [13]: −
- platelet aggregation response (in words) [13]: doesn't elicit an aggregation response
